The values below come from patent US8927559B2, “Quinazolinone-type compounds as CRTH2 antagonists” (Merck Sharp & Dohme Corp., priority 2010, dated 2015).

This experiment deals with T1, CRTH2 receptor (hCRTH2) (Homo sapiens, UniProt Q9Y5Y4).
T1 construct: expressed in transfected cells; host or cells: HEK cells (HEK-hCRTH2 cell line), membranes
T1 sequence (Q9Y5Y4 1-395): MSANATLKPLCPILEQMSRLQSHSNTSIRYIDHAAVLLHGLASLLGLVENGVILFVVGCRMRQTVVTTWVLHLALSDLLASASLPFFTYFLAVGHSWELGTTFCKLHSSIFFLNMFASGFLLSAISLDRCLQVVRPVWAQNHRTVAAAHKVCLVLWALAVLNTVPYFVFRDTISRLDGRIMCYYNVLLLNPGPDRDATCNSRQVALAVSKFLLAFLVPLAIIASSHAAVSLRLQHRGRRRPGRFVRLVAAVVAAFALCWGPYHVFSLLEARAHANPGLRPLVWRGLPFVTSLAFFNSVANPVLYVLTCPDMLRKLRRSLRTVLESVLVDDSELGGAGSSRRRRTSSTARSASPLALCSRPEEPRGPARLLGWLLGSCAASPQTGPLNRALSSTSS
In words: Radioligand binding assay ([3H]PGD2 competition, membranes of HEK-hCRTH2 cell line). The settings on record: 3.0 nM [3H]PGD2, HEK-hCRTH2 membranes, 60 min, room temperature; read-out: Ki. The method in brief: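 Membranes (8-20 μg protein) from HEK cells expressing human CRTH2 were incubated with [3H]PGD2 and competitor in 1% DMSO for 60 min at room temperature. Non-specific binding was defined with excess PGD2. Bound radioactivity was separated by filtration and counted by melt-on scintillation.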

Structures are written as SMILES. Where “and” joins values, the source holds several entries; their conditions need not be identical. Identical values can stand only once.

Consider `C[C@@H](OCc1ccc(F)cc1)c1cc(-c2ccc3c(=O)n(-c4ccc(F)cc4)c(CCCCC(=O)O)nc3c2)no1` [Example 44], for which the inhibitory constant (Ki) – broadly, the dissociation constant of the complex between target and ligand, obtained from inhibition or displacement – was 10 to 50 nM and 32.6 nM.

Take `Cc1cc(-c2ccc3c(=O)n(-c4ccc(F)cc4)c(CCCCC(=O)O)nc3c2)on1` [Example 8D]: the Ki is at most 10 nM.

With `CC1(c2cc3ccccn3n2)CC(c2ccc3c(=O)n(-c4ccc(F)cc4)c(CCCCC(=O)O)nc3c2)=NO1` (stereo not drawn) [Example 193], the Ki is at most 10 nM.

For the compound `O=C(O)CCCCc1nc2cc(-c3noc(CCc4ccc(F)cc4)n3)ccc2c(=O)n1-c1ccc(F)cc1` [Example 241], the Ki is at most 10 nM.

For the compound `O=C(O)CCCCc1nc2cc(-c3c[nH]nn3)ccc2c(=O)n1-c1ccc(F)cc1` [Example 18, 5-[3-(4-fluorophenyl)-4-oxo-7-(1H-1,2,3-triazol-4-yl)-3,4-dihydroquinazolin-2-yl]pentanoic acid], the Ki lay in the range of 10 to 50 nM.

As for `CCCC1(c2ccccc2)CC(c2ccc3c(=O)n(-c4ccc(F)cc4)c(CCCCC(=O)O)nc3c2)=NO1` (stereo not drawn) [Example 254], the Ki was at most 10 nM.

With `N#CC1CC2(CC(c3ccc4c(=O)n(-c5ccc(F)cc5)c(CCCCC(=O)O)nc4c3)=NO2)C1` (stereo not drawn) [Example 112], the Ki is at most 10 nM.

For `C[C@@]1([C@H](O)c2ccc(F)cc2)CC(c2ccc3c(=O)n(-c4ccc(F)cc4)c(CCCCC(=O)O)nc3c2)=NO1` [Example 289], the inhibition constant (Ki) was at most 10 nM.

Regarding `C[C@]1([C@H](O)c2ccccc2)CC(c2ccc3c(=O)n(-c4ccccc4)c(CCCCC(=O)O)nc3c2)=NO1` [Example 26K], the Ki was in the range of 10 to 50 nM.

Take `O=C(O)CCCCc1nc2cc(-c3cc(C4CC4)on3)ccc2c(=O)n1-c1ccc(F)cc1` [Example 5J]: the Ki fell in the range of 10 to 50 nM.

With `C[C@@]1(c2cn3ccccc3n2)CC(c2ccc3c(=O)n(-c4ccc(F)cc4)c(CCCCC(=O)O)nc3c2)=NO1` [Example 178], the Ki was at most 10 nM.

For the compound `O=C(O)CCCCc1nc2cc(-c3cc(C4CC4)no3)ccc2c(=O)n1-c1ccc(F)cc1` [Example 8C, 5-(7-(3-Cyclopropylisoxazol-5-yl)-3-(4-fluorophenyl)-4-oxo-3,4-dihydroquinazolin-2-yl)pentanoic acid], the inhibition constant (Ki) was 10 to 50 nM.

As for `O=C(O)CCCCc1nc2cc(-c3cc(-c4ccc(F)cc4)on3)ccc2c(=O)n1-c1ccc(F)cc1` [Example 5N], the Ki is at most 10 nM.

As to `C[C@]1([C@H](O)c2cccc(C#N)c2)CC(c2ccc3c(=O)n(-c4ccc(F)cc4)c(CCCCC(=O)O)nc3c2)=NO1` [Example 138], the Ki was 10 to 50 nM.

With `O=C(O)CCCCc1nc2cc(-c3cc(CSc4ccccn4)on3)ccc2c(=O)n1-c1ccc(F)cc1` [Example 39G], the Ki was in the range of 10 to 50 nM.

As for `COc1cccc(C2CC(c3ccc4c(=O)n(-c5ccc(F)cc5)c(CCCCC(=O)O)nc4c3)=NO2)c1` (stereo not drawn) [Example 15N], the Ki is at most 10 nM.

For the compound `CC1(c2nc3ccc(Cl)cc3o2)CC(c2ccc3c(=O)n(-c4ccc(F)cc4)c(CCCCC(=O)O)nc3c2)=NO1` (stereo not drawn) [Example 158], the Ki was at most 10 nM.

Consider `O=C(O)CCCCc1nc2cc(-c3cc(C(=O)C4CC4)on3)ccc2c(=O)n1-c1ccc(F)cc1` [Example 5Q], for which the Ki is 10 to 50 nM.

In the case of `C[C@]1(Cc2ccccc2)CC(c2ccc3c(=O)n(-c4ccccc4)c(CCCCC(=O)O)nc3c2)=NO1` [Example 26L], the Ki was in the range of 10 to 50 nM.

For `C[C@]1(c2nc3ccc(Cl)cc3o2)CC(c2ccc3c(=O)n(-c4ccc(F)cc4)c(CCCCC(=O)O)nc3c2)=NO1` [Example 172], the Ki is at most 10 nM.

On to `O=C(O)CCCCc1nc2cc(-c3cc(CNC(=O)c4ccccc4)on3)ccc2c(=O)n1-c1ccc(F)cc1` [Example 24F], for which the inhibitory constant (Ki) was at most 10 nM.

With `COCC1(c2ccccc2)CC(c2ccc3c(=O)n(-c4ccc(F)cc4)c(CCCCC(=O)O)nc3c2)=NO1` (stereo not drawn) [Example 15V], the Ki lay within 10 to 50 nM.

As for `CC1(c2cccnc2)CC(c2ccc3c(=O)n(-c4ccc(F)cc4)c(CCCCC(=O)O)nc3c2)=NO1` (stereo not drawn) [Example 253], the Ki is at most 10 nM.

In the case of `C[C@]1(c2nc3cc(Cl)c(F)cc3[nH]2)CC(c2ccc3c(=O)n(-c4ccc(F)cc4)c(CCCCC(=O)O)nc3c2)=NO1` [Example 210], the inhibitory constant (Ki) lay within 10 to 50 nM.
